Values quoted from earlier work as cited in PMC4387854 (Bioorganic & medicinal chemistry, 2013).
Marks after values point to notes of the source that are not given here.

What was measured:
[1] = female rats with MNU-initiated mammary tumors; ref Grubbs et al. 8
[2] = preclinical evaluation in rats and dogs or in human trials

## CC(=C/C=C/C(C)=C/C(=O)O)/C=C1\CCCc2ccccc21 [9cUAB30, (2E,4E,6Z,8Z)-8-(3’,4’-Dihydro-1’(2H)-naphthalen-1’-ylidene)-3,7-dimethyl-2,3,6-octatrienoinic acid]
[1]
  Serum Triglyceride Increase (%): 65% ^d
[2]
  Increase in serum TG: no increase
